Calls of active or inactive are those of the source. No cut-off for these calls is given here.
How the values were obtained:
Assay type in all cases: functional, organism-based
[1] = tested on: SARS-CoV-2; assay: Antiviral activity against luciferase-expressing pseudovirus encoding SARS-CoV-2 Omicron expressing S protein L303A/E309A/R765A/K964A mutant infected in human 293T/ACE2 cells assessed as reduction of viral growth at 1.25 to 10 uM measured after 48 hrs by luciferase assay; settings: Severe acute respiratory syndrome coronavirus 2, dose 1.25-10 µM
[2] = tested on: SARS-CoV-2; assay: Antiviral activity against luciferase-expressing pseudovirus encoding SARS-CoV-2 Omicron expressing S protein L303A/E309A mutant infected in human 293T/ACE2 cells assessed as reduction of viral growth measured after 48 hrs by luciferase assay; settings: Severe acute respiratory syndrome coronavirus 2
[3] = tested on: SARS-CoV-2; assay: Antiviral activity against luciferase-expressing pseudovirus encoding SARS-CoV-2 Omicron expressing S protein R765A/K964A mutant infected in human 293T/ACE2 cells assessed as reduction of viral growth measured after 48 hrs by luciferase assay; settings: Severe acute respiratory syndrome coronavirus 2

With `C=C(C)[C@@H]1CC[C@]2(C(=O)Nc3ccc4ccccc4c3)CC[C@]3(C)[C@H](CC[C@@H]4[C@@]5(C)CC[C@H](O[C@@H]6O[C@H](CO)[C@@H](O[C@@H]7O[C@@H](C)[C@H](O)[C@@H](O)[C@H]7O)[C@H](O)[C@H]6O[C@@H]6O[C@@H](C)[C@H](O)[C@@H](O)[C@H]6O)C(C)(C)[C@@H]5CC[C@]43C)[C@@H]12` the Activity [1] was “inactive”, the Activity [2] was “Active” and the Activity [3] was “Active”.
